Test results reported in patent US8633182B2, “Indanyloxyphenylcyclopropanecarboxylic acids” (Boehringer Ingelheim International GmbH, priority 2012, dated 2014).

Each compound was assayed against human GPR40 receptor (Homo sapiens, UniProt O14842) (assay: IP1 accumulation measurements using the IPOne assay system in 1321N1 cells stably expressing human GPR40 receptor). Details: IP1 accumulation (HTRF), 1321N1 cells stably expressing human GPR40, 1 hour stimulation at 37° C.
Type: cell-based
Description: IP1 accumulation measurements using the IPOne assay system—1321N1 cells stably expressing human GPR40 receptor (Euroscreen, Belgium) are seeded 24 h before the assay in black clear-bottom collagen-coated or white 384-well plates in culture medium containing 10% FCS, 1% Na-Pyruvate and 400 μg/mL G418. IP1 is assayed according to the Manufacturer's description (Cisbio Bioassays, France). In brief, the assay is started by substitution of the culture medium by stimulation buffer (Hepes 10 mM, CaCl2 1 mM, MgCl2 0.5 mM, KCl 4.2 mM, NaCl 146 mM and glucose 5.5 mM, pH 7.4) without LiCl or with […]. Cells are stimulated for 1 hour at 37° C., 5 or 10% CO2 by addition of the compounds that are diluted in stimulation buffer containing LiCl yielding a final LiCl concentration of 50 mM. Assays are stopped by adding HTRF-conjugates (IP1-d2 and Anti-IP1 cryptate Tb) and lysis buffer, provided by the manufacturer. After an incubation time of 1 hour at room temperature plates are measured using an EnVision™, Perkin Elmer. The obtained fluorescence ratios at […] are then used to calculate the pEC50 values using GraphPad Prism 5 (Graphpad Software Inc, USA) or Assay Explorer 3.3 Software (Accelrys, Inc.) by interpolation using an IP1 reference curve and subsequent sigmoidal curve fitting allowing for a variable hill slope.

Sequence of human GPR40 receptor (O14842 whole entry): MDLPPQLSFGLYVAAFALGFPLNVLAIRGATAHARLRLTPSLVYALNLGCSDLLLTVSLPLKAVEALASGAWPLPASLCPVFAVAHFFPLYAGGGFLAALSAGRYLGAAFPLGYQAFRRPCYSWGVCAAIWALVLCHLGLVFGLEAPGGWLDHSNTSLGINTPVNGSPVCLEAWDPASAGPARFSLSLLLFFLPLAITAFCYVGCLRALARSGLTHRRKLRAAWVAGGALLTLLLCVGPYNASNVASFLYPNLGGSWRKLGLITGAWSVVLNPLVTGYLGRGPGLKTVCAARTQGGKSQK

SMILES	EC50
O=C(O)C1CC1c1ccc(O[C@@H]2CCc3c2cccc3C(F)(F)F)cc1 (stereo in doubt) [Example 2, 2-[4-((R)-4-Trifluoromethyl-indan-1-yloxy)-phenyl]-trans-cyclopropanecarboxylic acid]	15 nM
O=C(O)C1CC1c1ccc(O[C@@H]2CCc3cc(C(F)(F)F)ccc32)cc1 (stereo in doubt) [Example 3, 2-[4-((R)-5-Trifluoromethyl-indan-1-yloxy)-phenyl]-trans-cyclopropanecarboxylic acid]	36 nM
O=C(O)C1CC1c1ccc(O[C@@H]2CCc3c(OC(F)(F)F)cccc32)cc1 (stereo in doubt) [Example 4, 2-[4-((R)-4-Trifluoromethoxy-indan-1-yloxy)-phenyl]-trans-cyclopropanecarboxylic acid]	18 nM
O=C(O)C1CC1c1ccc(O[C@@H]2CCc3c2cccc3C(F)(F)F)cc1F (stereo in doubt) [Example 5, 2-[4-((R)-4-Trifluoromethyl-indan-1-yloxy)-2-fluorophenyl]-trans-cyclopropanecarboxylic acid]	85 nM
O=C(O)C1CC1c1ccc(O[C@@H]2CCc3c(OC(F)(F)F)cccc32)cc1F (stereo in doubt) [Example 6, 2-[4-((R)-4-Trifluoromethoxy-indan-1-yloxy)-2-fluorophenyl]-trans-cyclopropanecarboxylic acid]	98 nM
COc1cc(O[C@@H]2CCc3c2cccc3C(F)(F)F)ccc1C1CC1C(=O)O (stereo in doubt) [Example 7, 2-[4-((R)-4-Trifluoromethyl-indan-1-yloxy)-2-methoxyphenyl]-trans-cyclopropanecarboxylic acid]	531 nM
Cc1cccc(C)c1-c1ccc(F)c2c1CC[C@H]2Oc1ccc(C2CC2C(=O)O)cc1 (stereo in doubt) [Example 33, 2-{4-[(R)-4-(2,6-Dimethyl-phenyl)-7-fluoro-indan-1-yloxy]-phenyl}-trans-cyclopropanecarboxylic acid]	2 nM
COc1cc(O[C@@H]2CCc3c(OC(F)(F)F)cccc32)ccc1[C@@H]1C[C@H]1C(=O)O [Example 8]	407 nM
O=C(O)[C@@H]1C[C@H]1c1ccc(O[C@@H]2CCc3c2cccc3C(F)(F)F)cc1 [Example 9]	457 nM
O=C(O)[C@H]1C[C@@H]1c1ccc(O[C@@H]2CCc3c2cccc3C(F)(F)F)cc1 [Example 10]	13 nM
Cc1cc(OCCCS(C)(=O)=O)cc(C)c1-c1ccc(F)c2c1CC[C@H]2Oc1ccc([C@H]2C[C@@H]2C(=O)O)cc1 [Example 11]	9 nM
Cc1cc(OCCCS(C)(=O)=O)cc(C)c1-c1ccc(F)c2c1CC[C@H]2Oc1ccc([C@@H]2C[C@H]2C(=O)O)cc1 [Example 12, (1R,2R)-2-(4-{(R)-7-Fluoro-4-[4-(3-methanesulfonyl-propoxy)-2,6-dimethyl-phenyl]-indan-1-yloxy}-phenyl)-cyclopropanecarboxylic acid]	328 nM
Cc1cc(OCCCS(C)(=O)=O)cc(C)c1-c1ccc(F)c2c1CC[C@H]2Oc1ccc(C2CC2C(=O)O)cc1 (some centres unmarked) [Example 13]	13 nM
Cc1cc(OCC(C)(C)S(C)(=O)=O)cc(C)c1-c1ccc(F)c2c1CC[C@H]2Oc1ccc([C@H]2C[C@@H]2C(=O)O)cc1 [Example 14, (1S,2S)-2-(4-{(R)-7-Fluoro-4-[4-(2-methanesulfonyl-2-methyl-propoxy)-2,6-dimethyl-phenyl]-indan-1-yloxy}-phenyl)-cyclopropanecarboxylic acid]	8 nM
Cc1cc(C(=O)NCC(C)(C)O)cc(C)c1-c1ccc(F)c2c1CC[C@H]2Oc1ccc([C@H]2C[C@@H]2C(=O)O)cc1 [Example 15, (1S,2S)-2-(4-{(R)-7-Fluoro-4-[4-(2-hydroxy-2-methyl-propylcarbamoyl)-2,6-dimethyl-phenyl]-indan-1-yloxy}-phenyl)-cyclopropanecarboxylic acid]	12 nM
O=C(O)[C@H]1C[C@@H]1c1ccc(O[C@@H]2CCc3cccc(F)c32)cc1 [Example 16, (1S,2S)-2-[4-((R)-7-Fluoro-indan-1-yloxy)-phenyl]-cyclopropanecarboxylic acid]	304 nM
Cc1cc(OCCC(C)(C)O)cc(C)c1-c1ccc(F)c2c1CC[C@H]2Oc1ccc([C@H]2C[C@@H]2C(=O)O)cc1 [Example 17, (1S,2S)-2-(4-{(R)-7-Fluoro-4-[4-(3-hydroxy-3-methyl-butoxy)-2,6-dimethyl-phenyl]-indan-1-yloxy}-phenyl)-cyclopropanecarboxylic acid]	4 nM
Cc1cc(OCC2(S(C)(=O)=O)CC2)cc(C)c1-c1ccc(F)c2c1CC[C@H]2Oc1ccc([C@H]2C[C@@H]2C(=O)O)cc1 [Example 18, (1S,2S)-2-(4-{(R)-7-Fluoro-4-[4-(1-methanesulfonyl-cyclopropylmethoxy)-2,6-dimethyl-phenyl]-indan-1-yloxy}-phenyl)-cyclopropane-carboxylic acid]	5 nM

SMILES	EC50
CNC(=O)c1cc(C)c(-c2ccc(F)c3c2CC[C@H]3Oc2ccc([C@H]3C[C@@H]3C(=O)O)cc2)c(C)c1 [Example 19, (1S,2S)-2-{4-[(R)-4-(2,6-Dimethyl-4-methylcarbamoyl-phenyl)-7-fluoro-indan-1-yloxy]-phenyl}-cyclopropane-carboxylic acid]	13 nM
Cc1cc(OCC2CN(S(C)(=O)=O)C2)cc(C)c1-c1ccc(F)c2c1CC[C@H]2Oc1ccc([C@H]2C[C@@H]2C(=O)O)cc1 [Example 20, (1S,2S)-2-(4-{(R)-7-Fluoro-4-[4-(1-methanesulfonyl-azetidin-3-ylmethoxy)-2,6-dimethyl-phenyl]-indan-1-yloxy}-phenyl)-cyclopropanecarboxylic acid]	10 nM
Cc1cc(OCC2CCS(=O)(=O)CC2)cc(C)c1-c1ccc(F)c2c1CC[C@H]2Oc1ccc([C@H]2C[C@@H]2C(=O)O)cc1 [Example 21]	7 nM
Cc1cc(OCCN2CCCS2(=O)=O)cc(C)c1-c1ccc(F)c2c1CC[C@H]2Oc1ccc([C@H]2C[C@@H]2C(=O)O)cc1 [Example 22]	12 nM
Cc1cc(O[C@@H]2CCN(S(C)(=O)=O)C2)cc(C)c1-c1ccc(F)c2c1CC[C@H]2Oc1ccc([C@H]2C[C@@H]2C(=O)O)cc1 [Example 23]	13 nM
Cc1cc(O[C@H]2CCN(S(C)(=O)=O)C2)cc(C)c1-c1ccc(F)c2c1CC[C@H]2Oc1ccc([C@H]2C[C@@H]2C(=O)O)cc1 [Example 24]	18 nM
Cc1cc(O[C@@H]2CCOC2)cc(C)c1-c1ccc(F)c2c1CC[C@H]2Oc1ccc([C@H]2C[C@@H]2C(=O)O)cc1 [Example 25]	13 nM
Cc1cc(OC(C)(C)CO)cc(C)c1-c1ccc(F)c2c1CC[C@H]2Oc1ccc([C@H]2C[C@@H]2C(=O)O)cc1 [Example 26]	8 nM
Cc1cc(OCC(C)(C)O)cc(C)c1-c1ccc(F)c2c1CC[C@H]2Oc1ccc([C@H]2C[C@@H]2C(=O)O)cc1 [Example 27, (1S,2S)-2-(4-{(R)-7-Fluoro-4-[4-(2-hydroxy-2-methyl-propoxy)-2,6-dimethyl-phenyl]-indan-1-yloxy}-phenyl)-cyclopropanecarboxylic acid]	8 nM
Cc1cc(OC[C@H](C)CS(C)(=O)=O)cc(C)c1-c1ccc(F)c2c1CC[C@H]2Oc1ccc([C@H]2C[C@@H]2C(=O)O)cc1 [Example 28, (1S,2S)-2-(4-{(R)-7-Fluoro-4-[4-((S)-3-methanesulfonyl-2-methyl-propoxy)-2,6-dimethyl-phenyl]-indan-1-yloxy}-phenyl)-cyclopropanecarboxylic acid]	6 nM
Cc1cc(OC[C@@H](C)CS(C)(=O)=O)cc(C)c1-c1ccc(F)c2c1CC[C@H]2Oc1ccc([C@H]2C[C@@H]2C(=O)O)cc1 [Example 29, (1S,2S)-2-(4-{(R)-7-Fluoro-4-[4-((R)-3-methanesulfonyl-2-methyl-propoxy)-2,6-dimethyl-phenyl]-indan-1-yloxy}-phenyl)-cyclopropanecarboxylic acid]	7 nM
Cc1cc(OC(C)(C)C(N)=O)cc(C)c1-c1ccc(F)c2c1CC[C@H]2Oc1ccc([C@H]2C[C@@H]2C(=O)O)cc1 [Example 30, (1S,2S)-2-(4-{(R)-4-[4-(1-Carbamoyl-1-methyl-ethoxy)-2,6-dimethyl-phenyl]-7-fluoro-indan-1-yloxy}-phenyl)-cyclopropanecarboxylic acid]	18 nM
Cc1cc(OCCCCS(C)(=O)=O)cc(C)c1-c1ccc(F)c2c1CC[C@H]2Oc1ccc([C@H]2C[C@@H]2C(=O)O)cc1 [Example 31, (1S,2S)-2-(4-{(R)-7-Fluoro-4-[4-(4-methanesulfonyl-butoxy)-2,6-dimethyl-phenyl]-indan-1-yloxy}-phenyl)-cyclopropanecarboxylic acid]	6 nM
Cc1cc(OCC2(CO)CC2)cc(C)c1-c1ccc(F)c2c1CC[C@H]2Oc1ccc([C@H]2C[C@@H]2C(=O)O)cc1 [Example 32]	4 nM
Cc1cc(OCCC(C)(C)O)cc(C)c1-c1c(C#N)ccc2c1CC[C@H]2Oc1ccc([C@H]2C[C@@H]2C(=O)O)cc1 [Example 34]	8 nM
Cc1cc(OCC2CCS(=O)(=O)CC2)cc(C)c1-c1c(C#N)ccc2c1CC[C@H]2Oc1ccc([C@H]2C[C@@H]2C(=O)O)cc1 [Example 35]	28 nM
Cc1cc(O[C@@H]2CCN(S(C)(=O)=O)C2)cc(C)c1-c1c(C#N)ccc2c1CC[C@H]2Oc1ccc([C@H]2C[C@@H]2C(=O)O)cc1 [Example 37]	32 nM
